IC50 and AC50 data for two compounds are collected here from ChEMBL document CHEMBL1201862, “PubChem BioAssay data set” (2004).

The source made the active and inactive calls. For most assays here, no stated cut-off is given here; in the data, actives have a measured IC50 and inactives only a lower limit. A value given as a limit tells only on which side of the number the result lay.

The target in one assay is T1, Caspase-3 (Homo sapiens, UniProt P42574).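 Further: Dose-response selectivity test against caspase-3 for candidate inhibitors of sentrin-specific proteases (SENPs).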
T1 sequence (P42574 whole entry): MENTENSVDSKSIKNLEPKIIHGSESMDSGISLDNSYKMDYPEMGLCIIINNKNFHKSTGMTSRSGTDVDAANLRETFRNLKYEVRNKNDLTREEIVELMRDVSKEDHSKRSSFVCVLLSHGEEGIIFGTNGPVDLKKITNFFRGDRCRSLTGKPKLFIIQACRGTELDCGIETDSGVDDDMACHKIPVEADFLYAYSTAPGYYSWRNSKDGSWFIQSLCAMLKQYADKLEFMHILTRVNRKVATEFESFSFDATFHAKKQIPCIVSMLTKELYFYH
The assay is classed as functional.

Assay [1] addresses T2, Sentrin-specific protease 6 (Homo sapiens, UniProt Q9GZR1).
T2 sequence (Q9GZR1 whole entry): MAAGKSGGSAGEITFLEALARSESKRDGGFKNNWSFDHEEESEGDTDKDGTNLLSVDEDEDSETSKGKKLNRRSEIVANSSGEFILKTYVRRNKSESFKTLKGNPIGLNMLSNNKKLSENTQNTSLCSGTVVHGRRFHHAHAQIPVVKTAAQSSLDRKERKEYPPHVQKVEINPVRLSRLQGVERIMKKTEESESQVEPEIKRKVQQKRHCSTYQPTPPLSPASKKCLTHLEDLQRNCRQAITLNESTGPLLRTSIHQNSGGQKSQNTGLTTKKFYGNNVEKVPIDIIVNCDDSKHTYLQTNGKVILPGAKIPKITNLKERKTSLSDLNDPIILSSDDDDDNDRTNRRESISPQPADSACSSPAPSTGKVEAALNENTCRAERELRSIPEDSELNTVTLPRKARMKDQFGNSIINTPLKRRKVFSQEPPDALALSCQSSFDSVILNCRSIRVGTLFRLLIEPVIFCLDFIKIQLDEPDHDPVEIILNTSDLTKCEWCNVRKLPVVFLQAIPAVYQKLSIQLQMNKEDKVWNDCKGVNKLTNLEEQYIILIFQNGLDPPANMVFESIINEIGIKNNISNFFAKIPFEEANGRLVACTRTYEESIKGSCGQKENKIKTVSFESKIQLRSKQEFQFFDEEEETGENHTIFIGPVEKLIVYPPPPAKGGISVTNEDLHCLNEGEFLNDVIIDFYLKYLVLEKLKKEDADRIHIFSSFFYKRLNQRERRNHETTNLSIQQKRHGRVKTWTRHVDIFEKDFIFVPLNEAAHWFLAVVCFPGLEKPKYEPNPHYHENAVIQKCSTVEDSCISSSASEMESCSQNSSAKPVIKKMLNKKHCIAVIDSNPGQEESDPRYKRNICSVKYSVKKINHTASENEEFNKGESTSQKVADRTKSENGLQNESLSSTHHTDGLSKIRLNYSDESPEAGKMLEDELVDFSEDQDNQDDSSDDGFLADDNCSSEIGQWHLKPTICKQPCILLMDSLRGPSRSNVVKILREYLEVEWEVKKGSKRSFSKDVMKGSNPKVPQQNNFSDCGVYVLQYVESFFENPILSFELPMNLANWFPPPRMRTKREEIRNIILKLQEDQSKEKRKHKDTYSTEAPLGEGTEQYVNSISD
Type of assay: functional.

For assay [2], the target named is T3, Histone-lysine N-methyltransferase NSD2 (Homo sapiens, UniProt O96028).
T3 sequence (O96028 whole entry): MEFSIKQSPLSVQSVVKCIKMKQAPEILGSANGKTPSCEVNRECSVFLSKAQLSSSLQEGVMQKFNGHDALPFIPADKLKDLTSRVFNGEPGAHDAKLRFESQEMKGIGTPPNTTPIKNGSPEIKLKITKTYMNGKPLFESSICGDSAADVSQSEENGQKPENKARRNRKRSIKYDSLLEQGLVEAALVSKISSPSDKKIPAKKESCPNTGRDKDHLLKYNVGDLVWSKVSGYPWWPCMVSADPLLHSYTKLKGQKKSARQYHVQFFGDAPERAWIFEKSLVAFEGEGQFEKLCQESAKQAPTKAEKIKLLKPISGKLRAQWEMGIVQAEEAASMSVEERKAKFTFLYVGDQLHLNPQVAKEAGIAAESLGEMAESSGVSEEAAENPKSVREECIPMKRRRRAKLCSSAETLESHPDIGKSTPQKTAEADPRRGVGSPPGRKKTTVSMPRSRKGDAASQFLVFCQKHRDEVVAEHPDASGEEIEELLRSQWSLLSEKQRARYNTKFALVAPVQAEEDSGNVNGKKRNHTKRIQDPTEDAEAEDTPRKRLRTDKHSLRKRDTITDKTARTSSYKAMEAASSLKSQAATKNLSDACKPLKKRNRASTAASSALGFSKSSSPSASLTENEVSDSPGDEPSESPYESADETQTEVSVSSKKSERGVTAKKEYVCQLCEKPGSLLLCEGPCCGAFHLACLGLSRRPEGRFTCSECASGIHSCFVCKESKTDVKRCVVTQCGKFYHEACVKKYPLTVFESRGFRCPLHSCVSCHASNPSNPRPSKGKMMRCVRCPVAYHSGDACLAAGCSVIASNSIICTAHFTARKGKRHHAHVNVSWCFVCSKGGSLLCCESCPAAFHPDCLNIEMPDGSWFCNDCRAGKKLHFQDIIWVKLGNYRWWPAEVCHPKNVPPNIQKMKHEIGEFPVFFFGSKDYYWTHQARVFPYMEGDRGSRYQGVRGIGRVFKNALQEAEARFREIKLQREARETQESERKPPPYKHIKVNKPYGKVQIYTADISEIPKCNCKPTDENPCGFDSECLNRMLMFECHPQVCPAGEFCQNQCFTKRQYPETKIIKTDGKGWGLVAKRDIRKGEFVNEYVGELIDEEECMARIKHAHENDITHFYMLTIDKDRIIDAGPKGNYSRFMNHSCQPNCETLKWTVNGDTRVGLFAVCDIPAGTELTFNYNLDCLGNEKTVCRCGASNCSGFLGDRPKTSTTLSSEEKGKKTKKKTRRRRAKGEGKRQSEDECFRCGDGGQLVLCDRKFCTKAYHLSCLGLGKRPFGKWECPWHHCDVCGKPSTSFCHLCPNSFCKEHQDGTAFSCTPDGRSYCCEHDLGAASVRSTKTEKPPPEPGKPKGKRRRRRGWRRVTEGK
The assay is classed as biochemical.

By IC50 is commonly meant the point on the concentration scale where inhibition reaches its midpoint. One may read the AC50 as the concentration at which the activity in the assay is half-maximal. Turning to `CCOC(=O)c1c(NS(=O)(=O)c2ccccc2)n(CCCOC)c2nc3ccccc3nc12`, the IC50 at Caspase-3 was 10 µM (active); in assay [1] it was 0.596 µM (active). For the same compound, the AC50 in assay [2] is 12.1 µM (active).

In the case of `O=C(COC(=O)c1ccc([N+](=O)[O-])s1)NCCc1ccccc1`, the IC50 on Caspase-3 is 9.7 µM (active); in assay [1] it was 4.79 µM (active). In assay [2], the AC50 was > 20 µM (inactive).
